Literature values, collected in patent publication US9289392B2, “Extended release pharmaceutical composition of entacapone or salts thereof” (Wockhardt Ltd., priority 2008, dated 2016).

solubility in water	SMILES
slightly soluble	N[C@@H](Cc1ccc(O)c(O)c1)C(=O)O [Levodopa, (−)-L-α-amino-β-(3,4-dihydroxybenzene) propanoic acid]
slightly soluble	C[C@@](Cc1ccc(O)c(O)c1)(NN)C(=O)O [Carbidopa]
